Reference: PubChem BioAssay (NCI)
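1) Cells in 96-well plates. 2) Compound, 48 h, 5 concentrations. 3) Linear interpolation between surrounding doses. 4) Unreached endpoint = highest concentration. At the GI50, growth is halved. TGI: concentration producing complete growth inhibition.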

Experiments:
Assay in all cases: NCI anticancer screen, dose series, 48 h
A498 renal = system: A498 renal
MDA-MB-435 = system: MDA-MB-435
OVCAR-3 ovarian = system: OVCAR-3 ovarian
LOX IMVI melanoma = system: LOX IMVI melanoma
HCT-15 colon = system: HCT-15 colon
SF-295 CNS = system: SF-295 CNS
UACC-257 melanoma = system: UACC-257 melanoma
HOP-62 NSCLC = system: HOP-62 NSCLC
BT-549 breast = system: BT-549 breast
NCI-H226 lung = system: NCI-H226 lung
NCI/ADR-RES ovarian = system: NCI/ADR-RES ovarian
UACC-62 melanoma = system: UACC-62 melanoma
786-0 renal = system: 786-0 renal
MOLT-4 leukemia = system: MOLT-4 leukemia
COLO 205 colon = system: COLO 205 colon
SW-620 colon = system: SW-620 colon
SK-MEL-2 melanoma = system: SK-MEL-2 melanoma
CCRF-CEM leukemia = system: CCRF-CEM leukemia
SF-268 CNS = system: SF-268 CNS
OVCAR-5 ovarian = system: OVCAR-5 ovarian
HL-60(TB) leukemia = system: HL-60(TB) leukemia
K-562 leukemia = system: K-562 leukemia
SK-OV-3 ovarian = system: SK-OV-3 ovarian
ACHN renal = system: ACHN renal
MALME-3M melanoma = system: MALME-3M melanoma
SK-MEL-28 melanoma = system: SK-MEL-28 melanoma
DU-145 prostate = system: DU-145 prostate
HCT-116 colon = system: HCT-116 colon
PC-3 prostate = system: PC-3 prostate
CAKI-1 renal = system: CAKI-1 renal
MDA-MB-231 breast = system: MDA-MB-231 breast
SNB-75 CNS = system: SNB-75 CNS
SK-MEL-5 melanoma = system: SK-MEL-5 melanoma
EKVX NSCLC = system: EKVX NSCLC
HCC-2998 colon = system: HCC-2998 colon
TK-10 renal = system: TK-10 renal
RXF 393 renal = system: RXF 393 renal
HS 578T breast = system: HS 578T breast
RPMI-8226 leukemia = system: RPMI-8226 leukemia
IGROV1 ovarian = system: IGROV1 ovarian
NCI-H460 lung = system: NCI-H460 lung
MCF7 breast = system: MCF7 breast
NCI-H23 lung = system: NCI-H23 lung
SF-539 CNS = system: SF-539 CNS
U251 CNS = system: U251 CNS
M14 melanoma = system: M14 melanoma
OVCAR-4 ovarian = system: OVCAR-4 ovarian
NCI-H522 lung = system: NCI-H522 lung
OVCAR-8 ovarian = system: OVCAR-8 ovarian
SN12C renal = system: SN12C renal
UO-31 renal = system: UO-31 renal
A549 NSCLC = system: A549 NSCLC
HOP-92 NSCLC = system: HOP-92 NSCLC
SR leukemia = system: SR leukemia
SNB-19 CNS = system: SNB-19 CNS
KM12 colon = system: KM12 colon
T-47D breast = system: T-47D breast
HT29 colon = system: HT29 colon

Compound `C=C(C)C(=O)O[C@H]1C[C@@]2(C)OC(=CC2=O)/C(CO)=C\[C@H]2OC(=O)C(=C)[C@H]12` has a GI50 (A498 renal) of 565 nM, a TGI (A498 renal) of 1290 nM and a GI50 (MDA-MB-435) of 66.4 nM. It also gave a TGI (MDA-MB-435) of 146 nM, a GI50 (OVCAR-3 ovarian) of 55.2 nM and a TGI (OVCAR-3 ovarian) of 149 nM. For the same compound, the GI50 (LOX IMVI melanoma) was 53.3 nM, the TGI (LOX IMVI melanoma) was 106 nM and the GI50 (HCT-15 colon) was 70.3 nM. The TGI (HCT-15 colon) was 223 nM, the GI50 (SF-295 CNS) was 575 nM and the TGI (SF-295 CNS) was 1500 nM. For the same compound, the GI50 (UACC-257 melanoma) was 74 nM, the TGI (UACC-257 melanoma) was 213 nM and the GI50 (HOP-62 NSCLC) was 654 nM. It also gave a TGI (HOP-62 NSCLC) of 2350 nM, a GI50 (BT-549 breast) of 92.8 nM and a TGI (BT-549 breast) of 292 nM. For the same compound, the GI50 (NCI-H226 lung) was 68.5 nM, the TGI (NCI-H226 lung) was 172 nM and the GI50 (NCI/ADR-RES ovarian) was 224 nM. It also gave a TGI (NCI/ADR-RES ovarian) of over 3.33 µM, a GI50 (UACC-62 melanoma) of 56.9 nM and a TGI (UACC-62 melanoma) of 123 nM. The GI50 (786-0 renal) was 65.2 nM, the TGI (786-0 renal) was 144 nM and the GI50 (MOLT-4 leukemia) was 80.2 nM. For the same compound, the TGI (MOLT-4 leukemia) was 265 nM, the GI50 (COLO 205 colon) was 32.7 nM and the TGI (COLO 205 colon) was 95.4 nM. The GI50 (SW-620 colon) was 52.1 nM, the TGI (SW-620 colon) was 147 nM and the GI50 (SK-MEL-2 melanoma) was 120 nM. For the same compound, the TGI (SK-MEL-2 melanoma) was 490 nM, the GI50 (CCRF-CEM leukemia) was 27.4 nM and the TGI (CCRF-CEM leukemia) was 259 nM. The GI50 (SF-268 CNS) was 168 nM, the TGI (SF-268 CNS) was 836 nM and the GI50 (OVCAR-5 ovarian) was 84.8 nM. It also gave a TGI (OVCAR-5 ovarian) of 226 nM, a GI50 (HL-60(TB) leukemia) of 67.7 nM and a TGI (HL-60(TB) leukemia) of 189 nM. For the same compound, the GI50 (K-562 leukemia) was 94.6 nM, the TGI (K-562 leukemia) was 621 nM and the GI50 (SK-OV-3 ovarian) was 1190 nM. It also gave a TGI (SK-OV-3 ovarian) of over 3.33 µM, a GI50 (ACHN renal) of 61.2 nM and a TGI (ACHN renal) of 228 nM. For the same compound, the GI50 (MALME-3M melanoma) was 70.8 nM, the TGI (MALME-3M melanoma) was 203 nM and the GI50 (SK-MEL-28 melanoma) was 66.1 nM. For the same compound, the TGI (SK-MEL-28 melanoma) was 148 nM, the GI50 (DU-145 prostate) was 120 nM and the TGI (DU-145 prostate) was 673 nM. It also gave a GI50 (HCT-116 colon) of 60.4 nM, a TGI (HCT-116 colon) of 163 nM and a GI50 (PC-3 prostate) of 190 nM. The TGI (PC-3 prostate) was 985 nM, the GI50 (CAKI-1 renal) was 87.9 nM and the TGI (CAKI-1 renal) was 301 nM. The GI50 (MDA-MB-231 breast) was 79.4 nM, the TGI (MDA-MB-231 breast) was 206 nM and the GI50 (SNB-75 CNS) was 132 nM. For the same compound, the TGI (SNB-75 CNS) was 1700 nM, the GI50 (SK-MEL-5 melanoma) was 318 nM and the TGI (SK-MEL-5 melanoma) was 1230 nM. For the same compound, the GI50 (EKVX NSCLC) was 137 nM, the TGI (EKVX NSCLC) was 1070 nM and the GI50 (HCC-2998 colon) was 216 nM. It also gave a TGI (HCC-2998 colon) of 535 nM, a GI50 (TK-10 renal) of 57.3 nM and a TGI (TK-10 renal) of 127 nM. For the same compound, the GI50 (RXF 393 renal) was 57.6 nM, the TGI (RXF 393 renal) was 120 nM and the GI50 (HS 578T breast) was 294 nM. The TGI (HS 578T breast) was over 3.33 µM, the GI50 (RPMI-8226 leukemia) was 80.9 nM and the TGI (RPMI-8226 leukemia) was 229 nM. It also gave a GI50 (IGROV1 ovarian) of 145 nM, a TGI (IGROV1 ovarian) of 562 nM and a GI50 (NCI-H460 lung) of 424 nM. For the same compound, the TGI (NCI-H460 lung) was 2070 nM, the GI50 (MCF7 breast) was 86.1 nM and the TGI (MCF7 breast) was 418 nM. The GI50 (NCI-H23 lung) was 153 nM, the TGI (NCI-H23 lung) was 421 nM and the GI50 (SF-539 CNS) was 88 nM. It also gave a TGI (SF-539 CNS) of 287 nM, a GI50 (U251 CNS) of 159 nM and a TGI (U251 CNS) of 579 nM. For the same compound, the GI50 (M14 melanoma) was 72.3 nM, the TGI (M14 melanoma) was 178 nM and the GI50 (OVCAR-4 ovarian) was 151 nM. It also gave a TGI (OVCAR-4 ovarian) of 652 nM, a GI50 (NCI-H522 lung) of 7.73 nM and a TGI (NCI-H522 lung) of 24.5 nM. For the same compound, the GI50 (OVCAR-8 ovarian) was 115 nM, the TGI (OVCAR-8 ovarian) was over 1540 nM and the GI50 (SN12C renal) was 114 nM. The TGI (SN12C renal) was over 1230 nM, the GI50 (UO-31 renal) was 68.5 nM and the TGI (UO-31 renal) was 177 nM. It also gave a GI50 (A549 NSCLC) of 840 nM, a TGI (A549 NSCLC) of over 3.33 µM and a GI50 (HOP-92 NSCLC) of 72.6 nM. It also gave a TGI (HOP-92 NSCLC) of 173 nM, a GI50 (SR leukemia) of 43.7 nM and a TGI (SR leukemia) of 249 nM. It also gave a GI50 (SNB-19 CNS) of 937 nM, a TGI (SNB-19 CNS) of over 3.33 µM and a GI50 (KM12 colon) of 509 nM. It also gave a TGI (KM12 colon) of 1120 nM, a GI50 (T-47D breast) of 72.9 nM and a TGI (T-47D breast) of 588 nM. For the same compound, the GI50 (HT29 colon) was 112 nM and the TGI (HT29 colon) was 356 nM.
